Data set [1] relates to PC-3 (human prostate cancer). As to the kind of experiment: XTT cell growth assay, PC-3. It counts as cell-based. The following applies: PC-3 cells; 5 to 25 μM; 24 and 48 hours incubation. Here is the method: (§1) The tumors cell lines used in this study included PC-3 (human prostate cancer), WM-266-4 cell (human metastatic melanoma), MDA-MB 231 (human breast cancer) and A172 (glioblastoma). […] The benign fibroblasts were tolerable to this conjugate, accentuating its potential as anticancer candidate. At the end of the culture period, cell growth was estimated by XTT assay. After 4 hours incubation of the cells with the XTT reagent, optical density (OD) of the reduced XTT product was then measured at 480 and 680 nm. Percentage of growth inhibition by a test compound was calculated by comparison of the treated culture versus a control culture (free of any compound). The result shown for each concentration point represents the mean+/−standard error calculated from 3 different experiments. In each experiment the compounds were tested in triplicates.

Data set [2] has as its system WM-266-4 cell (human metastatic melanoma). Put plainly: XTT cell growth assay, WM-266-4. It counts as cell-based. The following applies: WM-266-4 cells; 5 to 25 μM; 24 and 48 hours incubation. The method, then: as §1
Data set [3] deals with MDA-MB 231 (human breast cancer). As to the kind of experiment: XTT cell growth assay, MDA-MB 231. The format is cell-based. The following applies: MDA-MB 231 cells; 5 to 25 μM; 24 hours incubation (FIGS. 1E, 1F). Here is the method:
as §1

Data set [4] concerns A172 (glioblastoma). As to the kind of experiment: XTT cell growth assay, A172. The format is cell-based. The following applies: A172 cells; 5 to 25 μM. Here is the method:
as §1

The subject of data set [5] is benign fibroblasts. Put plainly: In vitro cytotoxicity on benign fibroblasts. The format is cell-based. The method, then: as §1
Data set [6] has as its system primary fibroblast (FB) cells. Put plainly: Annexin V-FITC/PI flow cytometry detection of apoptotic/necrotic stages, fibroblasts. The format is cell-based. The following applies: 10 μM, compared to cancer cells. Here is the method: Detection of apoptotic/necrotic stages of tumor cells was examined by Annexin V-FITC/PI apoptosis detection kit (MEBCYTO). Viable cells are negative for staining of either Annexin V or PI. Early apoptotic stage indicated with positive Annexin V and negative PI, whereas late-apoptotic and necrotic stages characterized by high PI signal.
FIGS. 3A-C present flow cytometry analysis of fibroblast cells treated with 10 μM of chimera 358 for 2 hours (FIG. 3A), 4 hours (FIG. 3B) and 8 hours (FIG. 3C), showing detection of apoptotic/necrotic stages of the cells.

Data set [7] has as its system WM-266.4 human melanoma xenograft. As to the kind of experiment: Experiment 1: human melanoma model mice, daily IP injection for 7 days. It counts as in vivo. Here is the method: (§2) In one experiment (Experiment 1), 14 human melanoma model mice (immune-deficient xenograft) were treated daily for 7 days by IP injection with of Chimera 358 followed by 2 days of observation according to the following groups: 4 control mice treated with saline, 5 mice treated with 25 mg and 5 mice treated with 10 mg.

For data set [8] the test system is unchanged. As to the kind of experiment: Experiment 2: human melanoma model mice, IP injection 3 times a week. The following applies: for WM-266.4 cell proliferation (tumor size) in vivo: IP 3 times a week. It counts as in vivo. Here is the method: (§3) In another experiment (Experiment 2), 13 human melanoma model mice were treated 3 times a week by IP injection with of Chimera 358 followed by 2 days of observation according to the following groups: 3 control mice received saline, 5 mice with 5 mg and 5 mice with 10 mg. The treatment was started two weeks after grafting, when tumor development has started.

The nature of data set [9]: Body weight monitoring, Experiment 1. It counts as in vivo, mice. The following applies: 25 mg group; IP daily for 7 days. Here is the method:
as §2
FIG. 6 presents the results of the body weight monitoring of 14 mice that undergone the treatment described in Experiment 1.

Data set [10] is described as follows: Body weight monitoring, Experiment 2. It counts as in vivo, mice. The following applies: 5 mg group; IP 3 times a week. Here is the method:
as §3
FIG. 7 presents the results of the body weight monitoring of 13 mice that undergone the treatment described in Experiment 2.

Entries after “also recorded” stand apart in the source; their conditions may differ.

Take `CN(C)CCN1C(=O)c2cccc3cc(NC(=O)CCCc4ccc(N(CCCl)CCCl)cc4)cc(c23)C1=O` [Chimera 358, 4-(4-(bis(2-chloroethyl)amino)phenyl)-N-(2-(2-(dimethylamino)ethyl)-1,3-dioxo-2,3-dihydro-1H-benzo[de]isoquinolin-5-yl)butanamide]: the “inhibition of cancer cell growth / cell viability (XTT)” value in [1], in data set [2] and in data set [3] was “remarkable inhibition of cancer cell growth; also recorded: notable cell toxicity” in each case. Further, in data set [4], the “inhibition of cancer cell growth (XTT)” value is reported as “remarkable inhibition of cancer cell growth”. Further, the “effect on benign fibroblasts” value in [5] is “tolerable”. The “cell death (apoptotic/necrotic stages)” value in data set [6] is given as “moderate”. Besides, the survival result was “one mouse” in data set [7] (10 mg group (5 mice), IP daily for 7 days) and “one mouse” in data set [8] (10 mg group (5 mice), IP three times weekly). Further, the “WM-266.4 cell proliferation (tumor size) in vivo” value in data set [7] (10 mg group, after four weeks of the treatment) is listed as “notable decrease in tumor size”; in [7] (mice receiving the treatment (25 mg, 10 mg) versus saline control), “grew to a much lesser extent”; in data set [8] (5 mg group), “kept growing”; in data set [8] (10 mg group), “grew to a much lesser extent”. Besides, the body weight entry in data set [9] is reported as “loss of body weight”; in data set [10] it was “maintained their body weight”.

(Values after US11007271B2, “Anticancer drug conjugates” (Ariel Scientific Innovations Ltd., priority 2016, dated 2021).)
